# Reference: article PMC8703884, “Synthesis and Biological Evaluation of S-, O- and Se-Containing Dispirooxindoles” (Molecules, 2021)
# Legend:
# [1] = tested on: HCT116^+/+ human colon cancer cells (p53 positive); assay: MTT cytotoxicity test, HCT116 p53+/+; conditions: for CC50: Homo sapiens, HCT-116, read-out: CC50, HCT^+/+; for selectivity S against HCT116^+/+ over HCT116^−/−: ratio of CC50 values of the cell line pair
# Description: (§1) The used models included human prostate cancer cell lines LNCaP and PC3, breast cancer cell line (MCF-7), human colon cancer cells (HCT116^+/+, p53 positive, p53^+/+ and HCT116^−/−, p53 negative, p53^−/−), human lung adenocarcinoma epithelial cell line (A549), SV40-transformed normal human lung fibroblast cells (VA13), as well as human embryonic kidney 293 cells (Hek293) stably expressing SV40 large T antigen (Hek293T). The cytotoxicity of the evaluated molecules was properly assessed using a MTT assay based on the modified approach reported by Ferrari and colleagues.
# (§2) To further elucidate the dominant mode of action, we used HCT116^+/+ and HCT116^−/− cells by analogy with the paper published by Shangary and colleagues. This isogenic cell line is commonly applied to investigate the p53/MDM2-dependent mode of action.
# (§3) MTT test. The MTT assay was carried out according to [35] with few modifications; 3000 Cells (for HEK293T, A549 and MCF7cell lines) or 4000 cells (for VA13 cell line) were seeded in each well of a 96-well plate. […] Assays were performed in triplicates. […] The MTT solution was then discarded and 140 µL of DMSO was added. The plates were swayed on a shaker (60 rpm) to solubilize the formazan. […] The analysis of cytotoxicity and the estimation of IC50 values were carried out with the built-in functions in the GraphPad Prism program (GraphPad Software, Inc., San Diego, CA) P53 activation.
# [2] = tested on: MCF7 breast cancer cell line; assay: MTT cytotoxicity test, MCF7; assay type: cell-based; conditions: Homo sapiens, 72 h incubation
# Experimental: (§4) MTT test. […] Assays were performed in triplicates.
# [3] = MTT cytotoxicity test, VA13; assay type: cell-based; conditions: human, VA13 SV40-transformed normal lung fibroblast cells, 72 h incubation
# Experimental: as §4
# [4] = tested on: LNCaP human prostate cancer cell line; assay: MTT cytotoxicity test, LNCaP; assay type: cell-based; conditions: for CC50: Homo sapiens, LNCaP, read-out: CC50, LNCaP; for selectivity index S for LNCaP/PC3 cells: ratio of CC50 values of the cell line pair
# [5] = tested on: A549 human lung adenocarcinoma epithelial cell line; assay: MTT cytotoxicity test, A549; assay type: cell-based; conditions: 72 h incubation
# [6] = tested on: PC3 human prostate cancer cell line; assay: MTT cytotoxicity test, PC3; assay type: cell-based; conditions: Homo sapiens
# [7] = MTT cytotoxicity test, Hek293T; assay type: cell-based; conditions: human, 72 h incubation
# [8] = tested on: HCT116^−/− human colon cancer cells (p53 negative); assay: MTT cytotoxicity test, HCT116 p53-/-; conditions: HCT-116, read-out: CC50, HCT^−/−
# Description: as §1, §2, §3
# [9] = tested on: p53 expression level in p53wt A549 cell line; assay: p53 activation, β-galactosidase reporter construction; conditions: high concentrations (>100 μM), 24 h
# Experimental: The β-galactosidase reporter construction equipped with the p53 promotor frame [46] was used to assess the p53 expression level in p53wt A549 cell line. The compounds were tested in the concentration range of 0.5–120 μM with triple dilution steps. The incubation time was 24 h. To take into account the toxic effect of the molecules, the output signal was normalized considering the number of the cells estimated by MTT test with the same incubation tome (24 h). The output was statistically significant if the background signal was exceeded two or more times.
# HEK293 cells = tested on: HEK293 cells; design: method as in PMID 21058726; conditions: 24 h cytotoxicity, MTT assay; cited from earlier work
# HCT116 cells = tested on: HCT116 cells; design: method as in PMID 24997575; conditions: MTT assay; cited from earlier work
# [10] = tested on: HCT116^−/− human colon carcinoma cells; design: method as in PMID 28339198; conditions: cited from earlier work
# [11] = tested on: LNCaP cells (androgen-dependent); design: method as in PMID 28339198; conditions: mitogenesis inhibition, dye assay, WST-8; cited from earlier work
# [12] = tested on: HCT116^+/+ human colon carcinoma cells; design: method as in PMID 28339198; conditions: cited from earlier work
# [13] = tested on: PC3 human prostate adenocarcinoma cells (p53-null); design: method as in PMID 28339198; conditions: mitogenesis inhibition, dye assay, WST-8; cited from earlier work
# [14] = tested on: MCF7 cells (hormone-dependent); design: method as in PMID 23802716; conditions: cited from earlier work
# PC3 cell line = tested on: PC3 cell line; design: method as in PMID 23802716; conditions: cited from earlier work
melting point,Structure (SMILES),CC50 [1],CC50 [2],CC50 at 72 h [3],CC50 ([4]; MTT test),CC50 [5],CC50 [6],CC50 at 72 h [7],CC50 [8],other results
275 to 276 °C,"CN1CC2(NC(=S)N(C3CC3)C2=O)C2(C1)C(=O)Nc1ccc(Cl)cc12 (stereo not drawn) [Compound 4t, 5″-Chloro-1′-methyl-1-cyclopropyl-2-thioxodispiro[imidazolidine-4,3′-pyrrolidine-4′,3″-indoline]-2″,5-dione]",> 100 µM,> 100 µM,> 100 µM,> 100 µM,> 100 µM,> 100 µM,> 100 µM,> 100 µM,
216 to 217 °C,"CN1CC2(NC(=S)N(CCCN3CCOCC3)C2=O)C2(C1)C(=O)Nc1ccccc12 (stereo not drawn) [Compound 4u, 1′-Methyl-1-(3-morpholinopropyl)-2-thioxodispiro[imidazolidine-4,3′-pyrrolidine-4′,3″-indoline]-2″,5-dione]",20.8 ± 4.8 µM,> 100 µM,> 100 µM,3.4 ± 0.6 µM,> 100 µM,53.6 ± 17.3 µM,> 100 µM,> 100 µM,selectivity S against HCT116^+/+ over HCT116^−/− [1]: > 1.8; selectivity on LNCaP cells over PC3 cells ([4]; MTT test): selective; selectivity index S for LNCaP/PC3 cells [4]: 15.7
273 to 274 °C,"CN1CC2(NC(=S)N(c3ccccc3)C2=O)C2(C1)C(=O)Nc1ccccc12 (stereo not drawn) [Compound 4w, 1′-Methyl-1-phenyl-2-thioxodispiro[imidazolidine-4,3′-pyrrolidine-4′,3″-indoline]-2″,5-dione]",54.7 ± 9.5 µM,57.9 ± 17.1 µM,94.1 ± 19.7 µM,9.8 ± 1.8 µM,> 100 µM,52.2 ± 11.6 µM,75.1 ± 8.6 µM,> 100 µM,selectivity S against HCT116^+/+ over HCT116^−/− [1]: > 4.8; selectivity index S for LNCaP/PC3 cells [4]: 5.3
,"CN1CC2(NC(=O)N(c3ccc(F)c(Cl)c3)C2=O)C2(C1)C(=O)Nc1ccc(Cl)cc12 (stereo not drawn) [Compound 9r, 5″-Chloro-1-(3-chloro-4-fluorophenyl)-1′-methyldispiro[imidazolidine-4,3′-pyrrolidine-4′,3″-indoline]-2,2″,5-trione]",,,,19.6 ± 1.8 µM,35.3 ± 17.7 µM,> 50 µM,15.1 ± 1.2 µM,,"p53 activation [9]: 2.1 fold; CC50, LNCaP ([4]; MTT test): good activity; selectivity on LNCaP cells over PC3 cells ([4]; MTT test): selective"
,O=C1C2CCC3(C(=O)Nc4ccccc43)C2C(=O)N1Cc1ccc(Cl)cc1 (stereo not drawn) [Compound IV],,,,,,,,,CC50 (HEK293 cells): 0.44 µM
,CC(C)(C)CC1N[C@@H](C(=O)Nc2ccc(C(N)=O)cc2)[C@H](c2ccc(F)c(Cl)c2)C12C(=O)Nc1cc(Cl)ccc12 (stereo partly drawn) [Compound V],,,,,,,,,IC50 (HCT116 cells): 0.09 µM
,CCN1[C@@H](C(=O)CC23CCC(C(=O)O)(CC2)CC3)[C@H](c2ccc(F)c(Cl)c2)C2(C(=O)Nc3cc(Cl)ccc32)C12CCCCC2 (stereo partly drawn) [II],,,,,,,,,IC50 [10]: 8 µM; IC50 [11]: 0.018 ± 0.013 µM; selectivity towards p53-positive cells ([12]; HCT116^+/+ vs HCT116^−/−): 80 fold; IC50 [12]: 0.1 µM; IC50 [13]: 22 µM
,CCOC(=O)C1CSC2(C(=O)N(C)c3ccc(Br)cc32)N1C(=O)C1CCCCC1 (stereo not drawn) [VI],,,,,,,,,IC50 [14]: 0.04 µM; IC50 (PC3 cell line): 0.41 µM
